Values of other authors in patent publication US20050238693A1, “Process for the preparation and activation of susbstances and a means of producing same” (priority 2002, published 2005).

Test system: bone loss
Conditions: 400 mg dose twice a day; women relatively soon after menopause

[Ca] [Calcium]
bone loss and bone density in spine, femoral neck and radial shaft: avert bone loss and stabilized bone density
